Measured values taken from ChEMBL document CHEMBL4011656, “Discovery and Optimization of Chromeno[2,3-c]pyrrol-9(2H)-ones as Novel Selective and Orally Bioavailable Phosphodiesterase 5 Inhibitors for the Treatment of Pulmonary Arterial Hypertension” (J Med Chem, 2017).
The source made the active and inactive calls. No cut-off for these calls is given here.

Tests used:
[1] = target: cGMP-specific 3',5'-cyclic phosphodiesterase (Homo sapiens, UniProt O76074)
[2] = Half life in rat liver microsomes; assay type: ADME, microsome
[3] = Half life in human microsomes; assay type: ADME, microsome; details: liver microsomes
Liver [4] = assay: Intrinsic clearance in rat liver microsomes; assay type: ADME, microsome
Liver [5] = assay: Intrinsic clearance in human liver microsomes; assay type: ADME, microsome
[6] = Apparent clearance in rat liver microsomes; assay type: ADME, microsome; details: read-out: CLH(app)
[7] = Apparent clearance in human microsomes; assay type: ADME, microsome; details: liver microsomes, read-out: CLH(app)
[8] = Hepatic clearance in rat liver microsomes; assay type: ADME, microsome
[9] = Hepatic clearance in human microsomes; assay type: ADME, microsome; details: liver microsomes
[10] = Hepatic extraction ratio in rat liver microsomes; assay type: ADME, microsome; details: read-out: ERH
[11] = Hepatic extraction ratio in human microsomes; assay type: ADME, microsome; details: liver microsomes, read-out: ERH
Liver [12] = assay: Drug metabolism in rat liver microsomes assessed as metabolic rate; assay type: ADME, microsome
Liver [13] = assay: Drug metabolism in human liver microsomes assessed as metabolic rate; assay type: ADME, microsome
[14] = Oral bioavailability in Sprague-Dawley rat by LC-MS/MS analysis; assay type: ADME, organism-based; details: in vivo
[15] = Oral bioavailability in rat; assay type: ADME, organism-based; details: in vivo
Rattus norvegicus [16] = assay: Reduction in MCT-induced increase in mean pulmonary arterial pressure in Wistar rat model of monocrotaline pulmonary arterial hypertension assessed as mean pulmonary arterial pressure at 10 mg/kg, po for 3 weeks (reference value: 32.74 mmHg); assay type: functional
Rattus norvegicus [17] = organism: Rattus norvegicus; details: Wistar, 10 mg/kg

O=c1c2ccccc2oc2c(Cc3ccc(O)cc3)[nH]c(-c3ccc(Cl)cn3)c12
IC50 [1]: 50 nM

O=c1c2ccccc2oc2c(Cc3ccc(O)cc3)[nH]c(-c3ccccc3F)c12
IC50 [1]: 16 nM

O=c1c2ccccc2oc2c(Cc3ccc(O)cc3)[nH]c(-c3cccnc3Cl)c12
IC50 [1]: > 100 nM

CC(C)(C)Oc1ccc(Cc2[nH]c(-c3nccs3)c3c(=O)c4ccccc4oc23)cc1
IC50 [1]: > 100 nM

O=c1c2ccccc2oc2c(Cc3ccc(O)cc3)[nH]c(-c3ccccn3)c12
IC50 [1]: 21 nM

Cc1ncc2n1-c1ccc(Cl)cc1C(c1ccccc1F)=NC2 [MIDAZOLAM]
half-life [2]: 2.4 min | half-life [3]: 2.7 min | CLH (Liver [4]): 574 µL/min/mg | CLH (Liver [5]): 506.4 µL/min/mg | CLint scaled [6]: 1040 mL/min/kg | CLint scaled [7]: 488 mL/min/kg | CLhep predicted [8]: 53.2 mL/min/kg | CLhep predicted [9]: 19.2 mL/min/kg | hepatic extraction ratio [10]: 0.95 | hepatic extraction ratio [11]: 0.96 | K (Liver [12]): 0.2877 | K (Liver [13]): 0.2532

Cc1nnc(-c2[nH]c(Cc3ccc(O)cc3)c3oc4ccccc4c(=O)c23)o1
IC50 [1]: > 100 nM

O=c1c2ccccc2oc2c(Cc3ccc(O)cc3)[nH]c(-c3cccnc3)c12
IC50 [1]: 77 nM

O=c1c2ccccc2oc2c(Cc3ccc(O)cc3)[nH]c(-c3cc(Cl)ccn3)c12
IC50 [1]: > 100 nM

O=c1c2ccccc2oc2c(Cc3ccc(C(F)(F)F)cc3)[nH]c(-c3nccs3)c12
IC50 [1]: 30 nM

O=C(c1[nH]c(Cc2ccc(O)cc2)c2oc3ccccc3c(=O)c12)N1CCOCC1
IC50 [1]: > 100 nM

Cc1ccc(-c2[nH]c(Cc3ccc(O)cc3)c3oc4ccccc4c(=O)c23)cc1
IC50 [1]: > 100 nM

O=c1c2ccccc2oc2c(Cc3ccc(O)cc3)[nH]c(-c3ccncc3)c12
IC50 [1]: > 100 nM

O=c1c2ccccc2oc2c(Cc3ccc(O)cc3)[nH]c(-c3cccnc3O)c12
IC50 [1]: > 100 nM

O=C(c1[nH]c(Cc2ccc(O)cc2)c2oc3ccccc3c(=O)c12)N1CCN(C2CC2)CC1
IC50 [1]: > 100 nM

O=c1c2ccccc2oc2c(Cc3ccc(O)cc3)[nH]c(-c3ccncc3Cl)c12
IC50 [1]: > 100 nM

O=c1c2ccccc2oc2c(Cc3ccc(O)cc3)[nH]c(-c3nccs3)c12
bioavailability [14]: < 10% | IC50 [1]: 5.4 nM

COC(=O)c1[nH]c(Cc2ccc(O)cc2)c2oc3ccccc3c(=O)c12
IC50 [1]: 31 nM

O=c1c2ccccc2oc2c(Cc3ccc(O)cc3)[nH]c(-c3ccncn3)c12
IC50 [1]: 56 nM

CC(C)N1CCN(C(=O)c2[nH]c(Cc3ccc(O)cc3)c3oc4ccccc4c(=O)c23)CC1
IC50 [1]: > 100 nM

COc1ncccc1-c1[nH]c(Cc2ccc(O)cc2)c2oc3ccccc3c(=O)c12
IC50 [1]: > 100 nM

CCCc1nn(C)c2c(=O)[nH]c(-c3cc(S(=O)(=O)N4CCN(C)CC4)ccc3OCC)nc12.O=C(O)CC(O)(CC(=O)O)C(=O)O [SILDENAFIL CITRATE]
bioavailability [15]: 41% | Activity (Rattus norvegicus [16]): 22.13 mmHg | inhibition (Rattus norvegicus [17]): Active
